Here are results for four molecules from patent US7528150B2, “Urea derivatives having vanilloid receptor antagonist activity” (Glaxo Group Limited, priority 2003, dated 2009).

By Kb is commonly meant the equilibrium dissociation constant of an antagonist, usually derived from a functional assay.

T1 sequence (Q8NER1 whole entry): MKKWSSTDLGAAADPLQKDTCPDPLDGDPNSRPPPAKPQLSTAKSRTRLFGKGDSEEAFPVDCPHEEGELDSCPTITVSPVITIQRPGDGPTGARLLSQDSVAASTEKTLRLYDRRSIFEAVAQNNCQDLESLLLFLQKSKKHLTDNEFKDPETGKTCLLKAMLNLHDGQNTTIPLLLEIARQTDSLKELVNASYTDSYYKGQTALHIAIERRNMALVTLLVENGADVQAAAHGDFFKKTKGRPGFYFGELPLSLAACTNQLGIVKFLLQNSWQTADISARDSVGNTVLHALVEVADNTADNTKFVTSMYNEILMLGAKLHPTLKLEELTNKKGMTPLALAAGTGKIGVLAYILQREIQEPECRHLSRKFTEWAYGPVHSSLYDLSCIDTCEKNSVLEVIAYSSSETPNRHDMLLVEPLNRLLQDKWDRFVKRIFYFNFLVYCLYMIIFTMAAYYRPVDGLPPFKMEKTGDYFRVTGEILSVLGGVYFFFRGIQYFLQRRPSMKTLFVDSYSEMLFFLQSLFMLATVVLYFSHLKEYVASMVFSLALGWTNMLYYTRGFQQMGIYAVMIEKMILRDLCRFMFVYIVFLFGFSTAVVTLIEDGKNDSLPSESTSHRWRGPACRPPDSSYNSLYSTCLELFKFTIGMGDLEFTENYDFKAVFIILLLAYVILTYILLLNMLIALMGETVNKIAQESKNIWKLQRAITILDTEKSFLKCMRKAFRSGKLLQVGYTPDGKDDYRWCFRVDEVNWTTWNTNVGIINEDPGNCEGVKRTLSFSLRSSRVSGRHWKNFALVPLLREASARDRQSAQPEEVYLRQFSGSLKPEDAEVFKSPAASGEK

The test has as its target T1, human VR1 (Homo sapiens, UniProt Q8NER1).
T1 construct: expressed in transfected cells; host or cells: astrocytoma 1321N1 cells, stably transfected
As to the kind of experiment: FLIPR based calcium assay, antagonism of capsaicin response in 1321N1 cells stably expressing human VR1. It is filed as cell-based. The following applies: transfected astrocytoma 1321N1 cells expressing human VR1; capsaicin as agonist; pKb generated from IC50 using the Cheng-Prusoff equation. The protocol:
The screen used for the compounds of this invention was based upon a FLIPR based calcium assay, similar to that described by Smart et al. (British Journal of Pharmacology, 2000, 129, 227-230). Transfected astrocytoma 1321N1 cells, stably expressing human VR1, were seeded into FLIPR plates at 25,000 cells/well (96-well plate) and cultured overnight.
The cells were subsequently loaded in medium containing 4 μM Fluo-3 AM (Molecular Probes) for 2 h, at room temperature, in the dark. The plates were then washed 4 times with Tyrode containing 1.5 mM calcium, without probenecid. The cells were pre-incubated with compound or buffer control at room temperature for 30 min. Capsaicin (Sigma) was then added to the cells. Compounds having antagonist activity against the human VR1 were identified by detecting differences in fluorescence when measured after capsaicin addition, compared with no compound buffer controls. Thus, for example, in the buffer control capsaicin addition results in an increase in intracellular calcium concentration resulting in fluorescence. A compound having antagonist activity blocks the capsaicin binding to the receptor, there is no signalling and therefore no increase in intracellular calcium levels and consequently lower fluorescence. pKb values are generated from the IC50 values using the Cheng-Prusoff equation.
`Cc1nccc2c(NC(=O)NC3CN(Cc4ccccc4C(F)(F)F)C3)cccc12` [Example 22]: the Kb is under 100 nM.

For the molecule `Cc1cc2c(NC(=O)N[C@@H]3CCN(Cc4ccc(C(F)(F)F)cc4)C3)cccc2cn1` [Example 17], the antagonist dissociation constant (Kb) is under 100 nM.

Consider `Cc1cc2c(NC(=O)N[C@@H]3CCN(Cc4cccc(C(F)(F)F)c4)C3)cccc2cn1` [Example 16], for which the Kb is under 100 nM.

With `Cc1cc2c(NC(=O)N[C@@H]3CCN(Cc4cccc(Cl)c4)C3)cccc2cn1` [Example 14], the Kb is under 100 nM.
